In PubChem BioAssay AID2060909 (Molecular Pharmacology Branch, DTP, NCI, 2025):
Each block holds one compound with its values, some of them ahead of it.

Test system: 362531-283-R-J2-PDC complex spheroid viability
Test: Anticancer human tumor 362531-283-R-J2-PDC patient-derived colon adenocarcinoma cell line growth inhibition [RAS]
Conditions: for IC50: curve of first compound; for viability, T/C: stronger effect = lower value
Method in brief: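 Multi-cell-type spheroids: tumor cells plus HUVEC endothelial cells and mesenchymal stem cells. RAS-pathway inhibitors were combined with targeted agents, each dosed in half-log steps down from clinical Cmax, or from 10 microM when Cmax was unknown.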

[1] = second compound 0.000949 µM, first compound 0.0316 µM
[2] = second compound 0.000949 µM, first compound 0.1 µM
[3] = second compound 0.003 µM, first compound 0.0316 µM
[4] = second compound 0.003 µM, first compound 0.1 µM
[5] = second compound 0.00949 µM, first compound 0.0316 µM
[6] = second compound 0.00949 µM, first compound 0.1 µM
[7] = second compound 0.03 µM, first compound 0.0316 µM
[8] = second compound 0.03 µM, first compound 0.1 µM
[9] = second compound 0.0949 µM, first compound 0.0316 µM
[10] = second compound 0.0949 µM, first compound 0.1 µM
[11] = second compound 0.3 µM, first compound 0.0316 µM
[12] = second compound 0.3 µM, first compound 0.1 µM
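Further: spheroids exposed to the agents for 7 days before readout.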
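Wherever viability, T/C is given: luminescence viability as percent of DMSO vehicle control wells.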

IC50 (second compound 0.000949 µM): 4.55 µM
IC50 (second compound 0.003 µM): 4.56 µM
IC50 (second compound 0.00949 µM): 4.58 µM
IC50 (second compound 0.03 µM): 4.8 µM
IC50 (second compound 0.0949 µM): 4.69 µM
IC50 (second compound 0.3 µM): < 0.0316 µM
Structure (SMILES): CCC(CC)c1cc(NC2CCC(N)C2)n2nccc2n1 (centres undefined) + CCn1c(-c2cc(N3CCN(C)CC3)cnc2C(C)OC)c2c3cc(ccc31)-c1csc(n1)CC(NC(=O)C1CC1C)C(=O)N1CCCC(N1)C(=O)OCC(C)(C)C2
viability, T/C [1]: 94.5%
viability, T/C [2]: 116%
viability, T/C (second compound 0.000949 µM, first compound 0.316 µM): 99.3%
viability, T/C (second compound 0.000949 µM, first compound 1 µM): 101%
viability, T/C (second compound 0.000949 µM, first compound 3.16 µM): 71.2%
viability, T/C (second compound 0.000949 µM, first compound 10 µM): 4.02%
viability, T/C [3]: 103%
viability, T/C [4]: 108%
viability, T/C (second compound 0.003 µM, first compound 0.316 µM): 96.6%
viability, T/C (second compound 0.003 µM, first compound 1 µM): 98.4%
viability, T/C (second compound 0.003 µM, first compound 3.16 µM): 71.4%
viability, T/C (second compound 0.003 µM, first compound 10 µM): 3.89%
viability, T/C [5]: 102%
viability, T/C [6]: 141%
viability, T/C (second compound 0.00949 µM, first compound 0.316 µM): 97.5%
viability, T/C (second compound 0.00949 µM, first compound 1 µM): 94.7%
viability, T/C (second compound 0.00949 µM, first compound 3.16 µM): 76%
viability, T/C (second compound 0.00949 µM, first compound 10 µM): 3.54%
viability, T/C [7]: 101%
viability, T/C [8]: 103%
viability, T/C (second compound 0.03 µM, first compound 0.316 µM): 89.8%
viability, T/C (second compound 0.03 µM, first compound 1 µM): 99.4%
viability, T/C (second compound 0.03 µM, first compound 3.16 µM): 76.1%
viability, T/C (second compound 0.03 µM, first compound 10 µM): 3.95%
viability, T/C [9]: 90.2%
viability, T/C [10]: 86.8%
viability, T/C (second compound 0.0949 µM, first compound 0.316 µM): 81.2%
viability, T/C (second compound 0.0949 µM, first compound 1 µM): 85.6%
viability, T/C (second compound 0.0949 µM, first compound 3.16 µM): 74.1%
viability, T/C (second compound 0.0949 µM, first compound 10 µM): 3.61%
viability, T/C [11]: 47.8%
viability, T/C [12]: 51.8%
viability, T/C (second compound 0.3 µM, first compound 0.316 µM): 45%
viability, T/C (second compound 0.3 µM, first compound 1 µM): 27.9%
viability, T/C (second compound 0.3 µM, first compound 3.16 µM): 4.3%
viability, T/C (second compound 0.3 µM, first compound 10 µM): 3.52%

IC50 (second compound 0.000949 µM): 0.0708 µM
IC50 (second compound 0.003 µM): 0.0857 µM
IC50 (second compound 0.00949 µM): 0.0523 µM
IC50 (second compound 0.03 µM): 0.0686 µM
IC50 (second compound 0.0949 µM): 0.0733 µM
IC50 (second compound 0.3 µM): 0.0654 µM
Structure (SMILES): CC(C)n1nc(-c2ccc3oc(N)nc3c2)c2c(N)ncnc21 + CCn1c(-c2cccnc2C(C)OC)c2c3cc(ccc31)N1CCOC(CC(NC(=O)C(C(C)C)N(C)C(=O)C3(F)CCN(C(=O)C#CC(C)(C)N(C)C)CC3)C(=O)N3CCCC(N3)C(=O)OCC(C)(C)C2)C1
viability, T/C (second compound 0.000949 µM, first compound 0.000316 µM): 95.5%
viability, T/C (second compound 0.000949 µM, first compound 0.001 µM): 98.7%
viability, T/C (second compound 0.000949 µM, first compound 0.00316 µM): 108%
viability, T/C (second compound 0.000949 µM, first compound 0.01 µM): 96.2%
viability, T/C [1]: 75%
viability, T/C [2]: 39.4%
viability, T/C (second compound 0.003 µM, first compound 0.000316 µM): 99.9%
viability, T/C (second compound 0.003 µM, first compound 0.001 µM): 92.8%
viability, T/C (second compound 0.003 µM, first compound 0.00316 µM): 102%
viability, T/C (second compound 0.003 µM, first compound 0.01 µM): 92.2%
viability, T/C [3]: 74.5%
viability, T/C [4]: 46.2%
viability, T/C (second compound 0.00949 µM, first compound 0.000316 µM): 98.9%
viability, T/C (second compound 0.00949 µM, first compound 0.001 µM): 108%
viability, T/C (second compound 0.00949 µM, first compound 0.00316 µM): 92.9%
viability, T/C (second compound 0.00949 µM, first compound 0.01 µM): 114%
viability, T/C [5]: 57.3%
viability, T/C [6]: 40.6%
viability, T/C (second compound 0.03 µM, first compound 0.000316 µM): 103%
viability, T/C (second compound 0.03 µM, first compound 0.001 µM): 93%
viability, T/C (second compound 0.03 µM, first compound 0.00316 µM): 107%
viability, T/C (second compound 0.03 µM, first compound 0.01 µM): 95.5%
viability, T/C [7]: 63.9%
viability, T/C [8]: 43.2%
viability, T/C (second compound 0.0949 µM, first compound 0.000316 µM): 90.4%
viability, T/C (second compound 0.0949 µM, first compound 0.001 µM): 93.9%
viability, T/C (second compound 0.0949 µM, first compound 0.00316 µM): 95.5%
viability, T/C (second compound 0.0949 µM, first compound 0.01 µM): 106%
viability, T/C [9]: 68.7%
viability, T/C [10]: 43.1%
viability, T/C (second compound 0.3 µM, first compound 0.000316 µM): 87.9%
viability, T/C (second compound 0.3 µM, first compound 0.001 µM): 105%
viability, T/C (second compound 0.3 µM, first compound 0.00316 µM): 103%
viability, T/C (second compound 0.3 µM, first compound 0.01 µM): 103%
viability, T/C [11]: 71.8%
viability, T/C [12]: 37.3%
